This experiment has as its target T1, Nitric oxide synthase, inducible (Mus musculus) (UniProt P29477).
T1 sequence (whole entry): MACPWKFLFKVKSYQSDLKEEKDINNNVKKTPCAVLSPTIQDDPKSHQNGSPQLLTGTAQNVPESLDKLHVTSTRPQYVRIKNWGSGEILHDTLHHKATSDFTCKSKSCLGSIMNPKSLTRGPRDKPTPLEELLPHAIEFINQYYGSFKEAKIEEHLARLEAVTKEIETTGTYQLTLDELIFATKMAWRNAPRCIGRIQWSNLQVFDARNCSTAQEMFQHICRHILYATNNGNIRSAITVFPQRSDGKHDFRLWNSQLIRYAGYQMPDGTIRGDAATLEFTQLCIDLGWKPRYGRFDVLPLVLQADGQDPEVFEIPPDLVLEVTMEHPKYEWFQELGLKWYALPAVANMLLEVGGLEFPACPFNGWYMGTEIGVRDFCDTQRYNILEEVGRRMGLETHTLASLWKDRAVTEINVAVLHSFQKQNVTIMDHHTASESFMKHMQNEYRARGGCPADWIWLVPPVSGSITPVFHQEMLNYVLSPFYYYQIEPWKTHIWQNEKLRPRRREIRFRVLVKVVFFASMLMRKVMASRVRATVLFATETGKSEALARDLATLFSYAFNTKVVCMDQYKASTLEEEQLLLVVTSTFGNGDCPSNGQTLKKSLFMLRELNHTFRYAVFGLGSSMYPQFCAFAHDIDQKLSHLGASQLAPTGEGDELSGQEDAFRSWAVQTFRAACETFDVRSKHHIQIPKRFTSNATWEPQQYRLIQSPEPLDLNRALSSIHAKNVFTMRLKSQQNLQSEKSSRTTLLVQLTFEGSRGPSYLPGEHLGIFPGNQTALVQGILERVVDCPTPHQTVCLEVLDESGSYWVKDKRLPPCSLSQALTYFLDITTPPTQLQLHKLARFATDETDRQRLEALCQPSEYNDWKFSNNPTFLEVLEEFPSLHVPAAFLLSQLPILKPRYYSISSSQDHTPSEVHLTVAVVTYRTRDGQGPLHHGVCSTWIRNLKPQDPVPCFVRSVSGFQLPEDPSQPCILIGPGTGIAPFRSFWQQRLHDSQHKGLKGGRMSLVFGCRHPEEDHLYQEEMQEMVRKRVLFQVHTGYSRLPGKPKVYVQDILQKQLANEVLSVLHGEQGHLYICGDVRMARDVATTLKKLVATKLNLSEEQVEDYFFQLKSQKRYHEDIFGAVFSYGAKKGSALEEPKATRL
As to the kind of experiment: Inhibition of iNOS in mouse J774.2 cells assessed as reduction of LPS-induced nitric oxide production at 1 to 10 uM after 24 hrs by Griess reaction. It is filed as cell-based.

The values below come from ChEMBL document CHEMBL1250423, “Terpioside B, a difucosyl GSL from the marine sponge Terpios sp. is a potent inhibitor of NO release” (Bioorg Med Chem, 2010).

SMILES strings stand for the structures. Activity calls are given as the source filed them. No cut-off for these calls is given here.

For `CCCCCCCCCCCCCCCCCCCCCC[C@@H](O)C(=O)N[C@@H](CO[C@@H]1O[C@H](CO)[C@@H](O)[C@H](O[C@@H]2O[C@H]([C@H](C)O)[C@@H](O)[C@@H]2O)[C@H]1O)[C@H](O)[C@H](O)CCCCCCCCCCCC(C)CC` (stereo partly specified), the inhibition entry was “Active”.
